Experimental data published in patent publication US20200038420A1, “AMINOSTEROL COMPOSITIONS AND METHODS OF USING THE SAME FOR TREATING DEPRESSION” (Enterin, Inc., priority 2018, published 2020).
“Also recorded” adds a separate entry of the source. Where a name gives a salt, the structure may show the parent alone. Read-outs that look alike come from different tables or passages of the source.

Key:
[1] = test system: patients with PD and constipation; assay: Adverse events, Phase 2 trial Stage 1 (single escalating oral doses); assay type: in vivo, human; conditions: Stage 1 (10 dosed), single escalating oral doses 25-200 mg
Source text: (§1) Tolerability limits included diarrhea or vomiting.

mouse models of PD = conditions: cited from earlier work
[2] = test system: patients with PD and constipation; assay: Adverse events, Phase 2 trial Stage 2 (daily oral dosing); assay type: in vivo, human; conditions: Stage 2 (34 dosed), daily oral doses 75-250 mg
Description: (§2) In Stage 2, 34 patients were evaluated.

αS = αS (Homo sapiens, UniProt P37840); conditions: in vitro; cited from earlier work
[3] = test system: patients with PD and constipation; assay: Bowel function / stool related indices, Stage 2; assay type: in vivo, human; conditions: Stage 2 (daily dosing), at 75 mg
Description: Following successful screening, all subjects underwent a 14-day run-in period where the degree of constipation was assessed through a validated daily log (Zinsmeister et al. 2013) establishing baseline CSBMs/week. Subjects with an average of <3 CSBMs/week proceeded to dosing.
as §2
The primary efficacy outcome variable was whether or not a subject was a “success” or “failure”. This is an endpoint based on subject diary entries for the “fixed dose” period prior to the endpoint assessment defined as average complete stool frequency increase by 1 or more over baseline, or 3 or more complete spontaneous stools/week. The subject was deemed a “success” if s/he met one or more of the criteria listed above, otherwise the subject was deemed a “failure”. The primary analysis was based on all subjects with a baseline assessment and an assessment at the end of the “fixed-dose” period and was a comparison of the proportion of successes with 0.10 (the null hypothesis corresponding to no treatment effect).

[4] = cited from earlier work
[5] = test system: patients with PD and constipation; assay: Prokinetic response (CSBM within 24 hours of dosing), Stage 1; assay type: in vivo, human; conditions: Stage 1 (single dose)
Source text: as §1

[6] = mice; into the duodenum through the biliary tract; cited from earlier work
[7] = test system: patients with PD and constipation; assay: CNS / neurological symptoms, Stage 2 (UPDRS, MMSE, PDHQ, BDI-II); assay type: in vivo, human
Source text: Exploratory end-points, in addition to constipation, included for example, (i) depression assessed using the Beck Depression Inventory (BDI-II) (Steer et al. 2000) and Unified Parkinson's Disease Rating Scale (UPDRS); (ii) cognition assessed using the Mini Mental State Examination (MMSE) (Palsteia et al. 2018), Unified Parkinson's Disease Rating Scale (UPDRS), and Trail Making Test (TMT); (iii) sleep and REM-behavior disorder (RBD) using a daily sleep diary, I-Button Temperature Assessment, a REM sleep behavior disorder (RBD) questionnaire (RBDQ) (Stiasny-Kolster et al. 2007), and the UPDRS; (iv) hallucinations assessed using the PD hallucinations questionnaire (PDHQ) (Papapetropoulos et al. 2008), the UPDRS, and direct questioning; (v) fatigue using the Parkinson's Disease Fatigue Scale (PFS-16) and the UPDRS; (vi) motor functions using the UPDRS; and (vii) non-motor functions using the UPDRS.
(§3) Assessments were made at baseline and at the end of the fixed dose and washout periods. Circadian system status was evaluated by continuously monitoring wrist skin temperature (Thermochron iButton DS1921H; Maxim, Dallas) following published procedures (Sarabia et al. 2008).
An exploratory analysis was done with respect to the sleep data, the body temperature data, mood, fatigue, hallucinations, cognition and other motor and non-motor symptoms of PD. […]

C. elegans αS model = conditions: cited from earlier work; for Formation of αS aggregates: in vivo, C. elegans model of PD
[8] = test system: patients with PD and constipation; assay: Circadian rhythm of wrist skin temperature; assay type: in vivo, human; conditions: 12 patients
Description: (6) I-Button Temperature Assessment. The I-Button is a small, rugged self-sufficient system that measures temperature and records the results in a protected memory section. The Thermochron I-Button DS1921H (Maxim Integrated, Dallas, Tex.) was used for skin temperature measurement. I-Buttons were programmed to sample every 10 mins., and attached to a double-sided cotton sport wrist band using Velcro, with the sensor face of the I-Button placed over the inside of the wrist, on the radial artery of the dominant hand. Subjects removed and replaced the data logger when necessary (i.e., to have a bath or shower). […] From the collected data, the mesor, amplitude, acrophase (time of peak temperature), Rayleight test (an index of interdaily stability), mean waveforms are calculated.);
as §3
Circadian rhythm of skin temperature was evaluable in 12 patients (i.e., those who had recordings that extended from baseline through washout). Circadian system functionality was evaluated by continuously monitoring wrist skin temperature using a temperature sensor (Thermochron iButton DS1921H; Maxim, Dallas, Tex.) (Sarabia et al. 2008). […]

[9] = test system: IPANs (intrinsic primary afferent neuron); conditions: perfusion through the lumen of isolated bowel segment; increased frequency of propulsive peristaltic contractions; cited from earlier work
[10] = Oral bioavailability in PD patients (oral PK compared with prior IV PK); assay type: in vivo, human; conditions: this study
Description: PK data were collected on the 10 patients enrolled in Stage 1 and 10 patients enrolled in Stage 2 to determine the extent of systemic absorption. In Stage 1, PK data were obtained at each visit, pre-medication, at 1, 2, 4, 8 and 24 hours (Table 10). In Stage 2, PK was measured on days 1 and 6 of the randomization period pre-medication, at 1, 2, 4 and 8 hours (Table 11).

CC(C)[C@@H](CC[C@@H](C)[C@H]1CC[C@H]2[C@@H]3[C@H](O)C[C@H]4C[C@@H](NCCCNCCCCN)CC[C@]4(C)[C@H]3CC[C@]12C)OS(=O)(=O)O (single isomer, unassigned) [squalamine (ENT-01), squalamine]
Abdominal pain, Mild [1]: 2(20) n, % | Abdominal pain, Moderate [1]: 3(30) n, % | Diarrhea, Mild [1]: 1(10) n, % | Diarrhea, Moderate [1]: 3(30) n, % | Diarrhea, Severe [1]: 0 n, % | Difficulty falling asleep, Mild [1]: 0 n, % | Difficulty falling asleep, Moderate [1]: 0 n, % | Dizziness, Mild [1]: 0 n, % | Dizziness, Moderate [1]: 0 n, % | Eye infection, Mild [1]: 0 n, % | Eye infection, Moderate [1]: 0 n, % | Flatulence, Mild [1]: 2(20) n, % | Flatulence, Moderate [1]: 0 n, % | Headache, Mild [1]: 1(10) n, % | Headache, Moderate [1]: 0 n, % | Increased urinary frequency, Mild [1]: 0 n, % | Increased urinary frequency, Moderate [1]: 0 n, % | Nausea, Mild [1]: 4(40) n, % | Nausea, Moderate [1]: 0 n, % | Skin lesions-rash, Mild [1]: 0 n, % | Skin lesions-rash, Moderate [1]: 0 n, % | Urinary retention, Mild [1]: 0 n, % | Urinary retention, Moderate [1]: 0 n, % | Urinary tract infection, Mild [1]: 0 n, % | Urinary tract infection, Moderate [1]: 0 n, % | Vomiting, Mild [1]: 1(10) n, % | Vomiting, Moderate [1]: 0 n, % | Worsening acid reflux, Mild [1]: 0 n, % | Worsening acid reflux, Moderate [1]: 0 n, % | Worsening hemorrhoid, Mild [1]: 0 n, % | Worsening hemorrhoid, Moderate [1]: 0 n, % | Blood in urine, Mild ([1]; unrelated to ENT-01): 1(10) n, % | Blood in urine, Moderate ([1]; unrelated to ENT-01): 0 n, % | Loss of appetite, Mild ([1]; unrelated to ENT-01): 1(10) n, % | Loss of appetite, Moderate ([1]; unrelated to ENT-01): 0 n, % | Lower GI bleed, Severe ([1]; unrelated to ENT-01): 0 n, % | Gastro-intestinal motility (mouse models of PD; oral, mice with constipation due to overexpression of human αS): stimulates gastro-intestinal motility | Gastrointestinal motility / dysmotility (mouse models of PD; several mouse models of PD): restores gastrointestinal motility; also recorded: reverse gastrointestinal dysmotility | Diarrhea, Mild [2]: 12(35)^ n, % | Difficulty falling asleep, Mild [2]: 1(3)^ n, % | Difficulty falling asleep, Moderate [2]: 0 n, % | Eye infection, Mild [2]: 1(3)^ n, % | Eye infection, Moderate [2]: 0 n, % | Flatulence, Mild [2]: 1(3)^ n, % | Flatulence, Moderate [2]: 0 n, % | Headache, Moderate [2]: 0 n, % | Increased urinary frequency, Moderate [2]: 0 n, % | Nausea, Mild [2]: 18(52)^ n, % | Skin lesions-rash, Moderate [2]: 0 n, % | Urinary retention, Mild [2]: 1(3)^ n, % | Urinary retention, Moderate [2]: 0 n, % | Urinary tract infection, Mild [2]: 1(3)^ n, % | Vomiting, Moderate [2]: 0 n, % | Worsening acid reflux, Moderate [2]: 0 n, % | Worsening hemorrhoid, Mild [2]: 1(3)^ n, % | Worsening hemorrhoid, Moderate [2]: 0 n, % | Blood in urine, Mild ([2]; unrelated to ENT-01): 0 n, % | Blood in urine, Moderate ([2]; unrelated to ENT-01): 0 n, % | Loss of appetite, Mild ([2]; unrelated to ENT-01): 0 n, % | Loss of appetite, Moderate ([2]; unrelated to ENT-01): 0 n, % | Formation of αS aggregates (αS): inhibits the formation of αS aggregates | Prokinetic response rate [3]: 26% | Gastrointestinal motility after intravenous administration ([4]; intravenous, prior studies): not associated with increased gastrointestinal motility | Systemic blood levels, intravenous versus orally administered squalamine ([4]; prior studies): one thousand-fold greater | Cumulative prokinetic response rate ([5]; at 25 mg): 25% | Cumulative prokinetic response rate ([5]; maximum, at 200 mg): 80% | Clearance and excretion following systemic administration [6]: cleared by the liver and excreted as the intact molecule | Patients in whom hallucinations and delusions improved or disappeared during treatment ([7]; Stage 2, 5 patients with hallucinations and 1 with delusions at baseline): 5 of 6 | Improvement of UPDRS Part 1 score ([7]; baseline 11.6 to wash-out 9.5): ~20% | Muscle paralysis / motor dysfunction (C. elegans αS model; C. elegans αS model): reverses motor dysfunction; also recorded: complete reversal of muscle paralysis | Formation of αS aggregates (C. elegans αS model; listed as ENT-01): inhibit the formation of aggregates of αS | Formation of αS aggregates (C. elegans αS model; listed as squalamine): inhibits the formation of αS aggregates | Circadian rhythm parameters (IS, RA, CFI, IV) ([8]; fixed dose versus baseline): improved all markers of healthy circadian function | Circadian rhythm parameters (IS, CFI) ([8]; wash-out period): improvement persisted for several of these circadian parameters | Effect on enteric sensory neurons [9]: excitation of IPANs | Systemic absorption following oral administration [10]: not significantly absorbed into the systemic circulation | Systemic absorption following oral administration ([10]; listed as aminosterol): negligible

CC(C)[C@@H](CC[C@@H](C)[C@H]1CC[C@H]2[C@@H]3[C@H](O)C[C@H]4C[C@@H](NCCCNCCCCN)CC[C@]4(C)[C@H]3CC[C@]12C)OS(=O)(=O)O [Squalamine dilactate salt]
Well tolerated dose, single and repeat intravenous administration ([4]; intravenous, alone or in combination with other agents, Phase 1 and Phase 2 trials): at least 300 mg/m^2
